Converted amounts (≈) assume the structure as drawn. Like-named read-outs stand apart in the source and are kept apart here.
Experiments:
[1] = parameters: method as in PMID 7571717; details: in humans; ref [43]; cited from earlier work
[2] = parameters: method as in PMID 29403987; details: healthy volunteers, single oral dose of albendazole 400 mg; ref [41]; cited from earlier work
[3] = physchem; details: aqueous pH solution systems (pH solubility profile), 37 °C, aqueous buffer, thermodynamic from solid
Procedure: The equilibrium solubility of ABZ was measured by the shake flask method at 37 ± 2 °C in different pH solution systems: 0.1 N HCl (pH 1.20 ± 0.01 and pH 2.0 ± 0.01), 0.02 M acetate buffer (pH 4.5 ± 0.02), and 0.05 M phosphate buffer (pH 6.8 ± 0.01). Solubility was also determined in FaSSGF (pH 1.6 ± 0.01), FaSSIF (pH 6.5 ± 0.01), and FeSSIF (pH 5.0 ± 0.01) containing bile concentrations of 0.08 mM, 3 mM, and 15 mM, respectively [25]. For each experiment, an excess amount of ABZ (~10 mg) was dispersed in 3 mL of solution. A sample was collected after 72 h and filtered using 0.45 µm polytetrafluoroethylene membrane disc filters (Pall Corp., New York, NY, USA). The samples were analyzed using a validated HPLC method. All experiments were performed in triplicate. The pH solubility profile and biorelevant solubility data for ABZ were analyzed using Simcyp™ In Vitro Data Analysis (SIVA, Certara UK Ltd., Sheffield, UK) software in order to estimate intrinsic solubility and the micelle-buffer partition coefficient (log Km:w). These parameter values were incorporated into the PBPK model for ABZ.
Data from dissolution experiments were used to estimate intrinsic solubility and bile-salt micelle-mediated solubilization using SIVA. Micelle buffer partition coefficients (log Km:w) for ABZ, both in neutral and ionic species of ABZ, were estimated using observed solubilities in biorelevant media.

[4] = test system: FMO3; details: ref [36]; cited from earlier work
[5] = Particle size distribution by laser diffraction; format: physicochemical; details: pure ABZ
Procedure: Particle size distribution (PSD) data for the marketed formulation are not publicly available. […] The particle size distribution of ABZ was measured by laser diffraction using a Mastersizer 3000 equipped with Aero S (dry dispersion feeder unit). The instrument software was used to calculate d10, d50, and d90, representing the volume percentage or portion of particles below the 10th, 50th, and 90th percentiles, respectively. PSD was characterized as a Weibull distribution function, and the data were analyzed to estimate the Weibull parameter values and mean radiuses, which served as the input parameters in the model development.

[6] = cited from earlier work
[7] = test system: CYP3A4; details: ref [36]; cited from earlier work
[8] = PBPK model simulation in Healthy Human Volunteer Population; details: healthy volunteers, albendazole 400 mg oral
Procedure: Clinically observed plasma profiles of ABZ and ABZ_SO were digitized from a published study using WebPlotDigitizer (Version 4.2, Austin, TX, USA), and the systemic exposure parameters (Cmax, AUC) were used to verify the model. PBPK model simulations were performed using the Healthy Human Volunteer Population according to the design of the referenced clinical study: 10 subjects (6 male, 4 female), aged 21 to 44 years, single oral dose of albendazole (400 mg). Model verification was based on visual inspection of the simulated ABZ and ABZ_SO mean plasma versus time profiles compared to observed data, and the fold error (ratio of model predicted and observed values) for Cmax and AUC of ABZ and ABZ_SO.

[9] = Equilibrium solubility by shake flask method; format: physicochemical
Procedure: The equilibrium solubility of ABZ was measured by the shake flask method at 37 ± 2 °C in different pH solution systems: 0.1 N HCl (pH 1.20 ± 0.01 and pH 2.0 ± 0.01), 0.02 M acetate buffer (pH 4.5 ± 0.02), and 0.05 M phosphate buffer (pH 6.8 ± 0.01). Solubility was also determined in FaSSGF (pH 1.6 ± 0.01), FaSSIF (pH 6.5 ± 0.01), and FeSSIF (pH 5.0 ± 0.01) containing bile concentrations of 0.08 mM, 3 mM, and 15 mM, respectively. For each experiment, an excess amount of ABZ (~10 mg) was dispersed in 3 mL of solution. A sample was collected after 72 h and filtered using 0.45 µm polytetrafluoroethylene membrane disc filters (Pall Corp., New York, NY, USA). The samples were analyzed using a validated HPLC method. All experiments were performed in triplicate. The pH solubility profile and biorelevant solubility data for ABZ were analyzed using Simcyp™ In Vitro Data Analysis (SIVA, Certara UK Ltd., Sheffield, UK) software in order to estimate intrinsic solubility and the micelle-buffer partition coefficient (log Km:w). These parameter values were incorporated into the PBPK model for ABZ.

[10] = Transfer system experiment (FaSSGF to FaSSIF) for precipitation kinetics; format: physicochemical; details: for Precipitation rate constant (PRC): max. value
Procedure: These experiments were carried out in order to characterize the precipitation kinetics of ABZ in a system designed to mimic the physiologic conditions in the GI tract as the drug moves from the stomach to the small intestine, where precipitation is inevitable and limits the availability of the soluble drug for absorption. To simulate the impact on solubility when the drug transits from the stomach into the intestine, the experimental system (Figure 1) consisted of two physiologically relevant compartments with allowances for modifications in transfer rate (representing the GI emptying rate), paddle speeds (representing the hydrodynamics inside the GI tract), and composition (representing fasted vs. fed conditions). A conventional dissolution system (Distek 5100, Distek Inc., North Brunswick Township, NJ, USA) with a USP-II paddle method was utilized. The gastric compartment contained FaSSGF media (250 mL, pH 1.6), and FaSSIF media (500 mL, pH 6.5), which constituted the intestinal compartment. FaSSIF was prepared with a higher buffer capacity to minimize pH changes after the complete transfer of the simulated gastric media. The paddle speed was maintained at 100 rpm for both compartments. The transfer was initiated after 30 min at a constant rate of 7 mL/min using an Econo™ Gradient pump (Bio-Rad Laboratories, Inc., Hercules, CA, USA). The following experiments were carried out: (a) 40 mg of free ABZ base (neat API) to maintain the sink condition in the gastric media. (b) Marketed immediate-release formulation (equivalent to 40 mg of ABZ) to maintain the sink condition and to determine the effect of excipients on promoting the supersaturation state. (c) Marketed immediate-release tablet formulation (400 mg of ABZ).
The gastric compartment was sampled at 5, 15, and 30 min, at which time the transfer to the intestinal compartment was initiated. Then, samples were collected from the intestinal compartment for an additional 90 min (32, 35, 40, 45, 50, 60, 75, 90, 105, and 120 min). Samples were filtered through 0.45 µm PTFE filters and immediately diluted with the mobile phase before quantitative analysis by HPLC. All dissolution experiments were performed in triplicate.

[11] = parameters: method as in Literature; details: ref Literature; cited from earlier work

In the case of `CCCSc1ccc2nc(NC(=O)OC)[nH]c2c1` [ABZ, Albendazole], the absolute oral bioavailability [1] is given as less than 5%, the “AUC0–∞ (observed)” value [2] is given as 53.0 ng·h/mL and the “Cmax (Observed)” value [2] is given as 9.55 ng/mL. For the same molecule, the solubility at 72 h [3] was 12 µg/mL (≈ 45.2 µM), the Km [4] was 9.6 µM and the Vmax [4] was 1103 pmol/min/pmol. For the same molecule, the d10 ([5]; laser diffraction) was 0.95 ± 0.10 µm, the d50 ([5]; laser diffraction) was 4.1 ± 0.64 µm and the d90 ([5]; laser diffraction) was 22 ± 1.3 µm. For the same molecule, the “Particle size distribution, Mean Radius” value ([5]; polydispersed) was 7.52 µm, the “Particle size distribution, Weibull Alpha” value ([5]; polydispersed) was 1.014 and the “Particle size distribution, Weibull Beta” value ([5]; polydispersed) was 8.732. The “Log Po:w” value ([6]; PBPK input, ref [34]) was 2.7, the “pKa1 (Ampholyte)” value ([6]; PBPK input, ref [35]) was 10.3 and the “pKa2 (Ampholyte)” value ([6]; PBPK input, ref [35]) was 2.8. For the same molecule, the “pKa1 (Ampholyte)” value ([6]; PBPK input, ref [35], listed as Albendazole) was 10.26, the BCS class ([6]; low solubility and high permeability) was “BCS class II” and the Km [7] was 10.1 µM. For the same molecule, the Vmax [7] was 369 pmol/min/pmol, the “Fold error, AUC0–∞ (predicted parameter/observed parameter)” value [8] was 1.13 and the “Fold error, Cmax (predicted parameter/observed parameter)” value [8] was 1.16. The solubility at 72 h ([9]; 0.02 M acetate buffer, 37 °C, pH 4.5, aqueous buffer, thermodynamic from solid, pH 4.5 Acetate buffer, 37 ± 2.0 °C, read-out: Solubility) was 8 ± 2 µg/mL (≈ 30.2 µM), the solubility at 72 h ([9]; 0.05 M phosphate buffer, 37 °C, pH 6.8, aqueous buffer, thermodynamic from solid, pH 6.8, read-out: solubility) was roughly 5 µg/mL (≈ 18.8 µM) and the solubility at 72 h ([9]; 0.05 M phosphate buffer, 37 °C, pH 6.8, aqueous buffer, thermodynamic from solid, pH 6.8 Phosphate buffer, 37 ± 2.0 °C, read-out: Solubility) was 5 ± 1 µg/mL (≈ 18.8 µM). It also gave a solubility at 72 h ([9]; 0.1 N HCl, 37 °C, pH 1.2, simulated gastric fluid, thermodynamic from solid, pH 1.2, read-out: maximum solubility) of roughly 500 µg/mL (≈ 1880 µM), a solubility at 72 h ([9]; 0.1 N HCl, 37 °C, pH 1.2, simulated gastric fluid, thermodynamic from solid, pH 1.2 HCl buffer, 37 ± 2.0 °C, read-out: Solubility) of 515 ± 45 µg/mL (≈ 1940 µM) and a solubility at 72 h ([9]; 0.1 N HCl, pH 2, pH 2.0 HCl buffer, 37 ± 2.0 °C, read-out: Solubility) of 25 ± 5 µg/mL (≈ 94.2 µM). For the same molecule, the solubility at 72 h ([9]; FaSSGF, 37 °C, pH 1.6, fassgf or other biorelevant, thermodynamic from solid, FaSSGF (pH 1.6), 37 ± 2.0 °C, read-out: Solubility) was 146 ± 12 µg/mL (≈ 550 µM), the solubility at 72 h ([9]; FaSSGF, 37 °C, pH 1.6, fassgf or other biorelevant, thermodynamic from solid, FaSSGF, read-out: solubility) was roughly 146 µg/mL (≈ 550 µM) and the solubility at 72 h ([9]; FaSSIF, 37 °C, pH 6.5, fassif, thermodynamic from solid, FaSSIF (pH 6.5), 37 ± 2.0 °C, read-out: Solubility) was 8 ± 1 µg/mL (≈ 30.2 µM). The solubility at 72 h ([9]; FaSSIF, 37 °C, pH 6.5, fassif, thermodynamic from solid, FaSSIF, read-out: solubility) was 8.2 µg/mL (≈ 30.9 µM), the “solubility in FeSSIF compared to FaSSIF” value ([9]; FeSSIF vs FaSSIF) was 2 fold and the solubility at 72 h ([9]; FeSSIF, pH 5, FeSSIF (pH 5.0), 37 ± 2.0 °C, read-out: Solubility) was 21 ± 4 µg/mL (≈ 79.1 µM). The solubility at 72 h ([9]; FeSSIF, pH 5, FeSSIF, read-out: solubility) was roughly 20.5 µg/mL (≈ 77.3 µM), the “dissolution in FaSSGF within 30 min” value ([10]; 40 mg dose, FaSSGF 250 mL pH 1.6) was “completely dissolved” and the “precipitation upon transfer to FaSSIF” value ([10]; 40 mg dose, FaSSIF pH 6.5) was “immediate precipitation”. For the same molecule, the “Critical Supersaturation Ratio (CSR)” value ([10]; set from transfer experiment, FaSSIF) was 1, the “Precipitation rate constant (PRC)” value ([10]; set from transfer experiment) was 1000 h⁻¹ and the “Precipitation rate constant (PRC)” value ([10]; set from transfer experiment, listed as Albendazole) was 1000 (max. value) 1/h.
In the case of `CCC[S+]([O-])c1ccc2[nH]c(NC(=O)OC)nc2c1` (stereo not shown) [ABZ_SO, albendazole sulfoxide], the “AUC0–∞ (observed)” value [2] is listed as 3475 ng·h/mL, the “Cmax (Observed)” value [2] is listed as 193.5 ng/mL and the “pKa1 (Ampholyte)” value ([6]; PBPK input, ref [35]) is listed as 9.79. The “Log Po:w” value ([6]; PBPK input, ref [38]) was 1.17, the “fu (fraction unbound in plasma)” value [11] was 0.3 and the “Fold error, AUC0–∞ (predicted parameter/observed parameter)” value [8] was 0.97. The “Fold error, Cmax (predicted parameter/observed parameter)” value [8] was 1.01.
